According to patent US20080085888A1, “Therapeutic Combinations” (priority 2006, published 2008):

Assays:
CF-1 male mice = experiment: Haloperidol-induced catalepsy model of EPS; format: in vivo, mouse
Source text: III. Blockade of Haloperidol-Induced Catalepsy
Haloperidol-induced catalepsy model of EPS: Haloperidol is a typical or first-generation antipsychotic drug that while effective is prone to produce extrapyramidal symptoms (EPS) in humans. Other antipsychotic drugs (e.g. chlorpromazine, risperidone) can also cause EPS in patients and this side effect can limit the use of these drugs. In rodents, drug-induced catalepsy (a trance-like state of waxy immobility) can be used to assess the risk of EPS for antipsychotic drugs. Haloperidol reliably induces catalepsy in mice and rats. Test compounds that reduce catalepsy in haloperidol-treated rats may reduce antipsychotic drug-induced EPS.
Haloperidol-induced catalepsy in mice model: CF-1 male mice (Charles River, 20-30 gm, 10 mice per dose) were dosed orally with compound (b) at 0.06, 0.19, 0.6 and 1.9 mg/kg or vehicle (distilled water). Thirty minutes later, all mice were dosed with 2 mg/kg of haloperidol s.c. At 60 minutes and 4 hours after haloperidol dosing, the experimenter gently placed both forepaws of each animal on a metal bar (4 mm in diameter) that was fixed horizontally 5 cm above the test floor. The length of time (in seconds) during which each mouse maintained the initial forepaw bar position was recorded (cataleptic pose). Maximum cut-off time was 60 seconds. The same experimental design was performed on two consecutive days, and results were combined from both experiments. Therefore, the final results are from groups of 20 mice.

rodent = details: cited from earlier work; for effect on haloperidol-induced catalepsy: Levin and Lippiello 1999
male Long Evans rats = experiment: Blockade of D-amphetamine-induced locomotor activity (LMA); format: in vivo, rat; details: for attenuation of amphetamine-induced locomotor activity: D-amphetamine 1 mg/kg s.c.
male, Long Evans rats = experiment: Spontaneous locomotor activity (sLMA), quetiapine-induced sedation
Source text: I. Attenuation of Quetiapine-Induced Sedation Using Spontaneous Locomotor Activity (sLMA)
Quetiapine is known to have sedative properties in humans. Quetiapine can induce sedation in rats and is manifested in various behaviors including reductions in spontaneous locomotor activity (sLMA). A test compound that increases sLMA in quetiapine treated rats may reduce quetiapine-induced sedation in human subjects.
The general procedure was to assess the effect of a particular drug on sLMA in rats by administering the drug after baseline assessment and then waiting an appropriate amount of time for the drug to achieve significant levels in plasma and brain.
Quetiapine was solubilized in saline plus some drops of 85% lactic acid and sonicated for around 20-30 minutes then adjusted with NaOH 1N for pH ˜4.8 to 5.0. The solution was stirred during the experiment to ensure uniform composition prior to administration. Quetiapine was administered by s.c. injection 15 minutes before testing. The dose volume was 4 ml/kg.
Compound b was dissolved in H2O and administered by oral gavage (p.o.) 30 minutes before testing with a dose volume of 1 ml/kg.
The effect of Compound b alone on sLMA was tested by administering doses of 0.006, 0.019, 0.06 or 0.19 mg/kg by oral gavage (p.o.) 30 minutes before testing. […]
Exploratory activity was monitored and quantified using open field activity systems (hardware and software) purchased from Med Associates. […]
Statistical analysis was made of total distance traveled over the 5 minutes test period for a spontaneous locomotor activity using one-way analysis ANOVA and Turkey's multiple-range analysis. All values are expressed as mean and SD.

## O=C(CCCN1CCC(O)(c2ccc(Cl)cc2)CC1)c1ccc(F)cc1 [Haloperidol, haloperidol]
CF-1 male mice; haloperidol 2 mg/kg s.c. alone
  mice with catalepsy of up to 60 seconds: 60-90 % of mice

## CNCC/C=C/c1cccnc1 [RJR 2403]
rodent
  effect on haloperidol-induced catalepsy: did not significantly worsen haloperidol-induced catalepsy, they did not reduce it either

## OCCOCCN1CCN(C2=Nc3ccccc3Sc3ccccc32)CC1 [quetiapine, 11-[4-[2-(2-hydroxyethoxy)ethyl]-1-piperazinyl]dibenzo[b,f][1,4]thiazepine]
Male Long Evans rats; quetiapine alone 10 mg/kg s.c.
  attenuation of amphetamine-induced locomotor activity: did not significantly attenuate
Male Long Evans rats; quetiapine alone 10 mg/kg s.c., listed as Quetiapine
  attenuation of amphetamine-induced locomotor activity: not
Male Long Evans rats; quetiapine alone 20, 40 and 60 mg/kg s.c.
  attenuation of amphetamine-induced locomotor activity: significantly attenuated
Male Long Evans rats; quetiapine alone s.c.
  threshold for significantly reducing D-amphetamine-induced locomotor activity: 20 mg/kg

## C[C@H](N)Cc1ccccc1 [Amphetamine, D-amphetamine]
Male Long Evans rats; D-amphetamine 1 mg/kg s.c. alone, p<0.001
  locomotor activity in habituated rats: significantly increased

## CN1CCCC1c1cccnc1 (centres unmarked) [nicotine]
rodent
  effect on haloperidol-induced catalepsy: did not significantly worsen haloperidol-induced catalepsy, they did not reduce it either
rodent; Sanberg et al. 1993
  effect on catalepsy in rodent: can worsen catalepsy

## CN[C@@H](C)C/C=C/c1cncc(OC(C)C)c1.O=C(O)c1ccc(O)cc1 [Compound b, (2S)-(4E)-N-Methyl-5-[3-(5-isopropoxypyridin)yl]-4-penten-2-amine p-hydroxybenzoate]
male, Long Evans rats; Compound b 0.19 mg/kg p.o. administered before quetiapine 40 mg/kg s.c. (combination)
  reduction in sLMA compared to vehicle-vehicle controls: did not result in a significant reduction in sLMA
male, Long Evans rats; Compound b 0.19 mg/kg p.o. and then vehicle
  suppression of sLMA: no significant suppression of sLMA
male, Long Evans rats; Compound b alone, 0.006, 0.019, 0.06 and 0.19 mg/kg p.o., 30 min before testing, 5 min test
  effect on sLMA (total distance traveled): no significant effect
Male Long Evans rats; Compound b alone 0.19 mg/kg p.o.
  reduction of D-amphetamine-induced locomotor activity: did not significantly reduce
Male Long Evans rats; combination: Compound b 0.19 mg/kg p.o. with quetiapine 10 mg/kg s.c., vs D-amphetamine alone group
  reduction of D-amphetamine-induced locomotor activity: did significantly reduce
Male Long Evans rats; combination: Compound b 0.019 or 0.06 mg/kg p.o. with quetiapine 10 mg/kg s.c.
  reduction of D-amphetamine-induced locomotor activity: did not significantly reduce
CF-1 male mice; 60 minute time point, Compound b 0.06, 0.19, 0.6 and 1.9 mg/kg p.o. 30 min before haloperidol 2 mg/kg s.c., P<0.05
  reduction of haloperidol induced catalepsy: reduced haloperidol induced catalepsy
CF-1 male mice; 4 hour time point, 1.9 mg/kg p.o. (only this dose) before haloperidol 2 mg/kg s.c.
  reduction of haloperidol induced catalepsy: significant reduction
